Legend:
[1] = system: multiple myeloma cells MM. 1S; experiment: In-vivo assay I: subcutaneous xenograft model of multiple myeloma cells MM. 1S in mice; conditions: MM. 1S xenograft, NOD/SCID mice; for animal death or weight loss caused by the compound: 2 mg/kg orally once daily for 14 days; for T/C / TGI (tumor growth inhibition rate): 2 mg/kg orally once daily, Day 14
Procedure: Evaluation assay of LMP7 inhibitors in a subcutaneous xenograft model of multiple myeloma cells MM. 1S in mice
Female NOD/SCID mice, week old: 5-6 weeks old, certificate No: SCXK(Jing) 2021-0006, purchased from Beijing Vital River Experimental Animal Technology Co. Ltd.
(§1) The specific method was that mice were housed in an SPF environment. Every 5 mice were housed in 1 cage. Animals were free to drink and eat and were adaptively raised for one week. Laboratory conditions: room temperature 18-24° C., relative humidity 40%-70%, ventilated with a ventilation fan, natural light source for 12 hours per day. Cages, bedding, drinking water, and feed were replaced twice a week, and the replaced cages and drinking water bottles were cleaned and then sterilized by steam under high pressure. Cages, room walls, and floors were cleaned twice a week with 84-disinfectant or bromogeramine.
MM. 1S (Cell Resource Center, Institute of Basic Medical Sciences, Chinese Academy of Medical Sciences) cells were cultured using RPMI-1640 medium supplemented with 20% fetal bovine serum and 1% Penicillin-Streptomycin at 37° C. in an atmosphere of 5% CO2 in air. Cells were routinely sub-cultured twice weekly, and cells grown in the exponential growth phase were harvested and counted. Cell suspensions were mixed well in 30% Matrigel™ (Corning Matrigel™ High Concentration Basement Membrane) for tumor cell inoculation.
Mice were pretreated with cyclophosphamide via intraperitoneal injection for 3 days, and each mouse was subcutaneously injected with 0.1 mL of PBS-suspended MM. 1S cell suspension (containing 1.0×10^7 cells, 30% Matrigel) at the axillary sites on both sides to establish a subcutaneous transplanted tumor model of multiple myeloma cells MM. 1S in mice. When the tumor size reached 400-700 mm^3, the tumor mass was collected aseptically and cryopreserved for future use. The MM. 1S tumor mass was revived, and the tumor mass was aseptically collected for 2 generations for an in-vivo efficacy evaluation assay. When the average tumor volume was about 100-150 mm^3, 20 tumor-bearing mice with a relatively regular shape and uniform size were selected for the experiment. They were divided into 4 groups, with 5 animals in each group. The first group of the model group was orally administered with the vehicle once daily; the second group was orally administered with Example 9 (2 mg/kg) once daily; the third group was orally administered with Example 67 (2 mg/kg) once daily; the fourth group was orally administered Example 73 (2 mg/kg) once daily. Administration was started on the day of grouping and continued for 14 days. Tumor diameter and body weight were measured 3 times per week during the experiment. At the end of the experiment, intraocular canthus blood was collected and mice were sacrificed immediately after blood collection to collect tumor tissue.
The study endpoints were tumor growth inhibition, maximum tumor burden (individual tumor size equal to 10% of body weight), and weight loss greater than 20% of body weight at the start of treatment. The tumor volume was calculated as V=0.5×a×b^2, where V is the tumor volume and a and b are the length and width of the tumor, respectively. The tumor growth inhibition rate was calculated as TGI (%)=(1-(tumor volume of treatment group-tumor volume of treatment group at grouping)/(tumor volume of control group-tumor volume of control group at grouping))*100%. Complete tumor regression (CR) is defined as a tumor that is reduced to below the palpation limit (mm^3). Partial tumor regression (PR) is defined as a tumor that is reduced by at least half compared to the initial tumor volume. The minimum duration of CR or PR in three or more consecutive tumor measurements is required to consider CR or PR as persistent. […]

[2] = system: multiple myeloma cells U266B1; experiment: In-vivo assay II: subcutaneous xenograft model of multiple myeloma cells U266B1 in mice; conditions: NOG mice
Procedure: Evaluation assay of LMP7 Inhibitors in a subcutaneous xenograft model of multiple myeloma cells U266B1 in mice
Female NOG mice, week old: 6-8 weeks old, certificate No: SCXK(Jing) 2021-0006, purchased from Beijing Vital River Experimental Animal Technology Co. Ltd.
as §1
U266b1 (China Center for Type Culture Collection, College of Life Sciences at Wuhan University) cells were cultured using RPMI-1640 medium supplemented with 20% fetal bovine serum and 1% Penicillin-Streptomycin at 37° C. in an atmosphere of 5% CO2 in the air. Cells were routinely sub-cultured twice weekly, and cells grown in the exponential growth phase were harvested and counted. Cell suspensions were mixed well at 1:1 in Matrigel™ (Corning Matrigel™ Normal Basement Membrane) for tumor cell inoculation.
Each mouse was subcutaneously injected with 0.1 ml of PBS-suspended U266B1 cell suspension (containing 1.0×10^7 cells, 50% Matrigel) at the axillary sites on both sides to establish a subcutaneous transplanted tumor model of multiple myeloma cells U266B1 in mice. […] Tumor diameter and body weight were measured 3 times per week during the experiment. […]
The study endpoints were tumor growth inhibition, maximum tumor burden (individual tumor size equal to 10% of body weight), and weight loss greater than 20% of body weight at the start of treatment. The tumor volume was calculated as V=0.5×a×b^2, where V is the tumor volume and a and b are the length and width of the tumor, respectively. […]

[3] = 0.3 mg/kg orally once daily, Day 14

Compound | animal death or weight loss caused by the compound [1] | T/C [1] [%] | TGI (tumor growth inhibition rate) [1] [%] | animal death or weight loss caused by the compound ([2]; 0.3 mg/kg orally once daily for 14 days) | T/C [2, 3] [%] | TGI (tumor growth inhibition rate) [2, 3] [%]
O=C1COB([C@H](Cc2coc3ccccc23)NC(=O)C(=O)Nc2cnccn2)O1 [Ex. 73] | no animal death or weight loss | 0.53 | 112.56 |  |  | 
CC1CC(C)(C)OB([C@H](Cc2coc3ccccc23)NC(=O)C(=O)Nc2cnccn2)O1 (stereo partly drawn) [Ex. 67] | no animal death or weight loss | 1.57 | 112.06 |  |  | 
O=C(Nc1cnccn1)C(=O)N[C@@H](Cc1coc2ccccc12)B(O)O [Ex. 9, (R)-(2-(benzofuran-3-yl)-1-(2-oxo-2-(pyrazin-2-ylamino)acetamido)ethyl) boronic acid] | no animal death or weight loss | 0.88 | 112.28 | no animal death or weight loss | 9.76 | 104.45

From patent US20240425529A1, “BORIC ACID DERIVATIVE” (SHOUYAO HOLDINGS (BEIJING) CO., LTD., priority 2021, published 2024)
